Data reported in patent publication US10906929B2, “Phosphoramidate nucleoside derivatives as anticancer agents” (NuCana plc, priority 2016, dated 2021).

How the values were obtained:
[1] = tested on: MCF-7 Mammary epithelial adenocarcinoma; assay: In vitro viability assay, CellTiterGlo; type: cell-based, human; details: MCF-7, CellTiterGlo, 72 h
Experimental: In vitro viability assay was performed to assess the effects of compounds on cell viability in selected cell lines over 72 h using the CellTiterGlo (CTG, Promega-G7573) assay. The tests were performed in duplicates with treatment of compounds at 9 points, 3.16 folds titration in 96 well plates over ˜72 h. The compound starting concentrations were […]. Cell viability assay using CellTiterGlo in 96-well plate were performed. Compounds were dissolved to 40 mM with thawed 100% DMSO. Compounds were serially diluted at 3.16-fold in thawed DMSO, and warmed to 37° C. before being dissolved in media (2 μl+200 μl). After compounds were dissolved in media, media containing compounds were warmed to 37° C. in incubator and then compounds in media were added to cell plates (50 μl+50 μl) in duplicates. The compounds' final concentrations were from 198 μM to 19.9 nM. Solubility of all compounds was checked and recorded again, then the plates were transferred to CO2 tissue culture incubator immediately and incubated for 3 days. DMSO final concentration is 0.5%.

NB4R2 = assay: In vitro cytotoxicity, MTS assay; type: cell-based; details: 72 h, read-out: Inhibitory concentration (IC50) NB4R2
Experimental: (§1) Cladribine phosphoramidate derivatives were evaluated against six leukaemic cell lines (KG1, U937, K562, NB4R2, NB4 and HL-60) in vitro. Inhibitory concentration (IC50) at which 50% of the cells were no longer viable (calculated using MTS assay) was determined. Cells were treated with Cladribine and its 3′-phosphoramidate derivatives at concentrations between 100 μM and 0.02 μM by serial dilutions and incubated for 72 h at 37° C., 5% CO2 in a final volume of 90 μL. Twenty microliters of MTS reagent (Promega UK Ltd, Southampton, Hants) was added to the tumour cell cultures and reaction incubated for a further 4 h at 37° C., 5% CO2. The absorbance of the reaction after this time was read by spectrophotometry at 490 nm and the percentage of viable cells calculated relative to untreated control cells in the same assay.

KG1 = assay: In vitro cytotoxicity, MTS assay; type: cell-based; details: Homo sapiens, KG-1, 72 h, read-out: Inhibitory concentration (IC50) KG1
Experimental: as §1

HL-60 = assay: In vitro cytotoxicity, MTS assay; type: cell-based; details: Homo sapiens, 72 h, read-out: Inhibitory concentration (IC50) HL-60
Experimental: as §1

U937 = assay: In vitro cytotoxicity, MTS assay; type: cell-based; details: Homo sapiens, U-937, 72 h, read-out: Inhibitory concentration (IC50) U937
Experimental: as §1

K562 = assay: In vitro cytotoxicity, MTS assay; type: cell-based; details: Homo sapiens, 72 h, read-out: Inhibitory concentration (IC50) K562
Experimental: as §1

NB4 = assay: In vitro cytotoxicity, MTS assay; type: cell-based; details: Homo sapiens, NB-4, 72 h, read-out: Inhibitory concentration (IC50) NB4
Experimental: as §1

L1210 = assay: Cytostatic activity, cell counting (Coulter counter); type: cell-based; details: Mus musculus, L1210; uninfected, 48 h proliferation; read-out: IC50 L1210
Text: (§2) Tumor cell cultures were infected with M. hyorhinis (ATCC 17981) and after two or more passages (to avoid bias by the initial inoculum) successful infection was confirmed using the MycoAlert™ mycoplasma detection kit (Lonza, Basel, Switzerland). Although this assay is only semi-quantitative, a maximal infection was observed 3 to 4 days after subcultivation of the mycoplasma-exposed cells. Chronically infected tumor cell lines are further referred to as Cell line.Hyor. All tumor cell cultures were maintained in Dulbecco's modified Eagle's medium (DMEM) (Invitrogen) supplemented with 10% fetal bovine serum (Biochrom AG, Berlin, Germany), 10 mm HEPES, and 1 mm sodium pyruvate (Invitrogen). Cells were grown at 37° C. in a humidified incubator with a gas phase containing 5% CO2.
(§3) The cytostatic activity of the test compounds was examined in mycoplasma-infected and uninfected cancer cell lines. When assaying the effect of M. hyorhinis infection, monolayer MCF7 and MCF7.Hyor cells were seeded in 48-well microtiter plates (Nunc™, Roskilde, Denmark) at 10,000 cells/well (Corning Inc., Corning, N.Y.) […]. After 24 h, the cells were exposed to different concentrations of test compound and allowed to proliferate for 72 h (to ensure sufficient cell proliferation and mycoplasma growth) after which the cells were trypsinized and counted using a Coulter counter (Analis, Suarlée, Belgium). Suspension cells (L1210, L1210.Hyor, FM3A, and FM3A.Hyor) were seeded in 96-well microtiter plates (Nunc) at 60,000 cells/well in the presence of different concentrations of test compound. The cells were allowed to proliferate for 48 h and then counted using a Coulter counter. The 50% inhibitory concentration (IC50) was defined as the compound concentration required to reduce cell proliferation by 50%.

MCF7 = assay: as above; type: cell-based; details: Homo sapiens, MCF7; uninfected, 72 h proliferation; read-out: IC50 MCF7
Text: as §2, §3

Structure (SMILES): Nc1nc(Cl)nc2c1ncn2[C@H]1C[C@H](O)[C@@H](CO)O1 [Cladribine, cladribine, reference compound]
- EC50 ([1]; Homo sapiens, MCF7, read-out: EC50 (μM) Ab): > 198 µM
- Top Inhibition (%) [1]: 36.3%
- IC50 (NB4R2): 60 nM
- IC50 (KG1): 60 nM
- IC50 (HL-60): 90 nM
- IC50 (U937): 20 nM
- IC50 (K562): 530 nM
- IC50 (NB4): 40 nM
- IC50 (L1210): 400 nM
- IC50 (MCF7): 370 nM
